Type in all cases: in vivo
For assay [1], the system named is sedge, umbrella (small-flower umbrella sedge, Cyperus difformis). The assay is described as follows: Test B flooded paddy test. Conditions: Cyperus difformis, Flood, 250 g ai/ha; scale of 0 to 100 where 0 is no effect and 100 is complete control; read-out: Sedge, Umbrella plant response rating. The method, boiled down:
(§1)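 Evaluation by eye, against controls, occurred 13–15 d post-treatment in a greenhouse, using a 0 (no effect) to 100 (complete control) scale. Application was into the paddy water, 3 cm deep over the soil, on 2-leaf plants.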

Assay [2] relates to rice (Oryra sativa). Briefly: Test B flooded paddy test. The settings on record: Oryza sativa, Flood, 250 g ai/ha; scale of 0 to 100 where 0 is no effect and 100 is complete control; read-out: Rice plant response rating. A digest of the protocol: as §1
Assay [3] deals with ducksalad (Heteranthera limosa). The assay is described as follows: Test B flooded paddy test. The settings on record: Heteranthera limosa, Flood, 250 g ai/ha; scale of 0 to 100 where 0 is no effect and 100 is complete control; read-out: Ducksalad plant response rating. The method, boiled down: as §1
For assay [4], the system named is barnyardgrass (Echinochloa crus-galli). Briefly: Test B flooded paddy test. The settings on record: Echinochloa crus-galli, Flood, 250 g ai/ha; scale of 0 to 100 where 0 is no effect and 100 is complete control; read-out: Barnyardgrass plant response rating. The method, boiled down: as §1
Assay [5] concerns Kochia (Kochia scoparia). Briefly: Test A postemergence. The settings on record: Bassia scoparia, post-emergence, 240 h, 125 g ai/ha, postemergence; visual injury after approximately 10 d; 0 to 100 scale (0 no effect, 100 complete control); read-out: Plant response rating, Kochia. A digest of the protocol: (§2)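 Seeds sprayed preemergence with a directed soil spray, or plants at 2 to 10 cm height and one- to two-leaf stage sprayed postemergence, with test chemicals in a non-phytotoxic solvent mixture containing surfactant, in loam soil–sand blend. Injury rated visually against untreated controls after about 10 d in greenhouse, 0 (no effect) to 100 (complete control).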

Assay [6] relates to giant foxtail (Setaria faberii). Briefly: Test A postemergence. The settings on record: Setaria faberi, post-emergence, 240 h, 125 g ai/ha, postemergence; visual injury after approximately 10 d; 0 to 100 scale (0 no effect, 100 complete control); read-out: Plant response rating, Foxtail, Giant. A digest of the protocol:
as §2

Assay [7] relates to Galium (catchweed bedstraw, Galium aparine). The assay is described as follows: Test A postemergence. Conditions: Galium, post-emergence, 240 h, 125 g ai/ha, postemergence; visual injury after approximately 10 d; 0 to 100 scale (0 no effect, 100 complete control); read-out: Plant response rating, Galium. The method, boiled down: as §2
In assay [8] the test system is corn (Zea mays). Briefly: Test A postemergence. Conditions: Zea mays, post-emergence, 240 h, 125 g ai/ha, postemergence; visual injury after approximately 10 d; 0 to 100 scale (0 no effect, 100 complete control). The method, boiled down: as §2
In assay [9] the test system is pigweed (Amaranthus retroflexus). The assay is described as follows: Test A postemergence. The settings on record: Amaranthus retroflexus, post-emergence, 240 h, 125 g ai/ha, postemergence; visual injury after approximately 10 d; 0 to 100 scale (0 no effect, 100 complete control); read-out: Plant response rating, Pigweed. The method, boiled down:
as §2

The subject of assay [10] is ragweed (common ragweed, Ambrosia elatior). The assay is described as follows: Test A postemergence. The settings on record: Ambrosia artemisiifolia, post-emergence, 240 h, 125 g ai/ha, postemergence; visual injury after approximately 10 d; 0 to 100 scale (0 no effect, 100 complete control); read-out: Plant response rating, Ragweed. The method, boiled down: as §2
Assay [11] has as its system blackgrass (Alopecurus myosuroides). Briefly: Test A postemergence. The settings on record: Alopecurus myosuroides, post-emergence, 240 h, 125 g ai/ha, postemergence; visual injury after approximately 10 d; 0 to 100 scale (0 no effect, 100 complete control); read-out: Plant response rating, Blackgrass. The method, boiled down:
as §2

Assay [12] relates to barnyardgrass (Echinochloa crus-galli). Briefly: Test A postemergence. Conditions: Echinochloa crus-galli, post-emergence, 240 h, 125 g ai/ha, postemergence; visual injury after approximately 10 d; 0 to 100 scale (0 no effect, 100 complete control); read-out: Plant response rating, Barnyardgrass. A digest of the protocol: as §2
In assay [13] the test system is wheat (Triticum aestivum). Briefly: Test A postemergence. The settings on record: Triticum aestivum, post-emergence, 240 h, 125 g ai/ha, postemergence; visual injury after approximately 10 d; 0 to 100 scale (0 no effect, 100 complete control); read-out: Plant response rating, Wheat. The method, boiled down:
as §2

The subject of assay [14] is ryegrass, Italian (Italian ryegrass, Lolium multiflorum). The assay is described as follows: Test A postemergence. The settings on record: Lolium multiflorum, post-emergence, 240 h, 125 g ai/ha, postemergence; visual injury after approximately 10 d; 0 to 100 scale (0 no effect, 100 complete control); read-out: Plant response rating, Ryegrass, Italian. A digest of the protocol: as §2

`O=C1NC[C@H](c2csc3ccccc23)[C@H]1C(=O)Nc1cccc(F)c1F` [Compound 751]: the pest or weed control at 250 g/ha in assay [1] stood at 0%; in assay [2] it was 30%; in assay [3], 100%; in [4] it was 40%. Further, the pest or weed control at 125 g/ha in [5] is 0%; in assay [6] it was 30%; in assay [7] it was 40%; in [9], 0%; in assay [10], 0%; in assay [11], 20%. Further, the pest or weed control at 125 g/ha in assay [12] is 60%; in [14], 0%. Moreover, the Corn plant response rating (crop injury, 0 = no effect, 100 = complete kill) at 125 g/ha in assay [8] worked out at 0%. In addition, the plant injury at 125 g/ha in assay [13] turned out to be 0%.

`CN1C[C@H](c2cc(F)cc(F)c2)[C@@H](C(=O)NC2CCc3ccccc32)C1=O` (stereo partly shown) [Compound 755]: the pest or weed control at 250 g/ha in assay [1], in assay [2], in assay [3] and in assay [4] was 0% throughout. Moreover, the pest or weed control at 125 g/ha in assay [5], in assay [6], in assay [7], in [9], in assay [10] and in [11] was 0% in each case. Further, the pest or weed control at 125 g/ha in assay [12] and in [14] was 0% each time. In assay [8], this compound showed a Corn plant response rating (crop injury, 0 = no effect, 100 = complete kill) at 125 g/ha of 0%. The plant injury at 125 g/ha in assay [13] was 0%.

As for `Cc1ccc(NC(=O)[C@H]2C(=O)N(C)C[C@@H]2c2cc(F)cc(F)c2)c(F)c1` [Compound 760], the pest or weed control at 250 g/ha in [1] amounted to 0%; in assay [2], 0%; in assay [3], 80%; in assay [4], 50%. In addition, the pest or weed control at 125 g/ha in assay [5] came to 0%; in assay [6] it was 80%; in [7] it was 0%; in [9], 0%; in assay [10], 0%; in [11], 0%. For the same compound, the pest or weed control at 125 g/ha in assay [12] was 80%; in [14], 0%. The same compound had a Corn plant response rating (crop injury, 0 = no effect, 100 = complete kill) at 125 g/ha in [8] of 0%. Moreover, the plant injury at 125 g/ha in [13] is 0%.

On to `Cc1ccc([C@H]2CNC(=S)[C@@H]2C(=O)Nc2cccc(F)c2F)cc1C` [Compound 765], for which the pest or weed control at 250 g/ha in assay [1] was determined as 0%; in [2], 20%; in assay [3], 100%; in assay [4], 40%. In addition, the pest or weed control at 125 g/ha in [5], in [6], in assay [7], in assay [9], in assay [10] and in assay [11] was 0% each time. The pest or weed control at 125 g/ha in [12] stood at 70%; in assay [14] it was 40%. Moreover, in assay [8], the Corn plant response rating (crop injury, 0 = no effect, 100 = complete kill) at 125 g/ha worked out at 0%. In addition, in assay [13], the plant injury at 125 g/ha stood at 0%.

Consider `COc1cc([C@H]2CN(C)C(=O)[C@@H]2C(=O)Nc2ccccc2SC)ccc1C(F)(F)F` [Compound 769], for which the pest or weed control at 250 g/ha turned out to be 0% in assay [1], 15% in [2], 80% in assay [3] and 0% in [4]. Moreover, the pest or weed control at 125 g/ha in assay [5] was 0%; in assay [6] it was 70%; in assay [7], 50%; in assay [9], 0%; in assay [10], 0%; in [11], 0%. Also, the pest or weed control at 125 g/ha was 50% in [12] and 30% in assay [14]. Further, the Corn plant response rating (crop injury, 0 = no effect, 100 = complete kill) at 125 g/ha in assay [8] is 0%. The plant injury at 125 g/ha in assay [13] is 0%.

These data come from patent US12077503B2, “Substituted cyclic amides and their use as herbicides” (FMC CORPORATION, priority 2015, dated 2024).
